Read-outs that look alike come from different tables or passages of the source.
Columns and labels:
[1] = system: leukemia, diffuse large B-cell lymphoma, other lymphomas or multiple myeloma; experiment: Objective responses in patients; assay type: in vivo, human; details: patients receiving 10 or 20 mg per day
Description: With regard to the compound of Formula (1), an effective dose is a dose that inhibits a protein in the bromodomain and extraterminal protein family to a sufficient degree that a desired objective response is observed. An objective response may be a complete response (all detectable tumor or blast cell has disappeared), a partial response (roughly corresponds to at least a 50% decrease in the total tumor volume or blast cell amount but with evidence of some residual disease still remaining), or a minor response (roughly means a small amount of tumor shrinkage or blast cell reduction). Thus, an objective response can include a response where blast cell amount reduction is observed, or where tumor shrinkage is observed in the patient.
(§1) Doses of the compound of Formula (1) were administered to patients having leukemia, hematologic malignancies, diffuse large B-cell lymphoma, other lymphomas or multiple myeloma, and dose limiting toxicity and objective responses were observed.
Compound of Formula (1) once-a-day doses of 10, 20, 40, 80, 120 and 160 mg and twice-a-day doses of 40 mg were administered to patients with leukemia, diffuse large B-cell lymphoma, other lymphomas or multiple myeloma. In this study, objective responses were not observed in patients receiving 10 or 20 mg per day.

[2] = system: BET (bromodomains and extraterminal) proteins, which include BRD2, BRD3, and BRD4; details: U.S. 2010/0286127 A1; cited from earlier work
[3] = Dose limiting toxicity in patients with acute leukemia or hematologic malignancies; assay type: in vivo, human
Description: Dose-limiting toxicity corresponds to side-effect toxicity such that the side-effects are severe enough to impose restrictions on, or to prevent administration of, the dose. Clinically significant toxicity includes but is not limited to intolerable levels in a patient of thrombocytopenia, neutropenia, fatigue, diarrhea, anemia, mucositis, and other side effects known to be associated with elevated levels of bromodomain and extraterminal protein inhibitors.
as §1
Compound of Formula (1) dose-limiting toxicity was evaluated in patients with acute leukemia and hematologic malignancies.

[4] = Phase I dose escalation population pharmacokinetics in patients with hematologic malignancies (plasma UPLC-MS/MS, Monolix PPK model); assay type: in vivo, human; details: for CL [mean +/- SD] / V [mean +/- SD]: apparent (F set to 1); for Cmin [mean +/- SD]: predose at Day 8; for AUC(0-t): read-out: AUC0-24 hr [mean +/- SD]; for Cmax: read-out: Cmax [mean +/- SD]
Description: Solid dispersions were prepared using the compound of Formula (1) and hydroxylpropylmethylcellulose acetate succinate (HPMCAS) at both 25% and 50% of compound loading. Solid dispersions were prepared by a solvent evaporation method, using spray-drying followed by secondary drying in a low-temperature convection oven. Dispersions containing 10 mg, 20 mg, 40 mg, 80 mg, 120 mg and 160 mg, of the compound, were prepared into capsules and administered to patients Pharmacokinetics (PK) of the compound of Formula (1) as single agent were characterized in patients with hematologic malignancies, including a population pharmacokinetic modeling. A multicenter, dose escalation study in cohorts of 3 to 6 patients with acute leukemia or other hematologic malignancies was performed with a dose escalation step followed by expansion cohorts at the recommended dose. Patients received oral compound of Formula (1) from 10 to 160 mg according to different schedules. Schedules included once a day dosing with 21-day cycles, acute leukemia (AL); 14 days on/7 days off, hematologic malignancies (OHM). Continuous PK blood samples from 7 time points over 24 hours post-administration were collected on day 1 of cycle 1 for the first 3 patients per DL, and 5 time points over 8 hours post-administration for other patients at this DL. Residual sampling before administration on days 8, 15 and 22 was performed in all patients. Compound plasma concentrations were measured using validated ultra-performance liquid chromatography with tandem mass spectrometry detection with a concentration range 1-250 ng/mL, with a small plasma volume for analysis (50 μL). Analyses and population PK (PPK) modeling were performed with the nonlinear mixed effect modeling software program Monolix version 4.3. The following parameters were calculated: absorption constant (Ka); apparent distribution volume (V/F); apparent clearance (CL/F) and lean body mass (LBM; calculated considering patient sex, weight and height). Parameters were estimated by computing the maximum likelihood estimator without linearization using the stochastic approximation expectation maximization (SAEM) algorithm combined with a Markov Chain Monte Carlo (MCMC) procedure. The number of MCMC chains was fixed at 10 for all estimations. A constant error model was used to describe residual and Between-Subject Variability (BSV, η) were ascribed to an exponential model. In the absence of intravenous data, the initial bioavailability (F) was set to 1, meaning that clearance (CL) and volume of distribution (V) should be interpreted as the apparent clearance (CL/F) and apparent volume of distribution (V/F), respectively. Eighty-five patients enrolled and treated and randomized to six dose levels (10, 20, 40, 80, 120 and 160 mg) once-a-day and 40 mg twice-a-day. Among them, 81 patients with 630 plasma concentrations (607+23 BLQ) were evaluable for PK assessment. A 1-compartment open model adequately described the total compound concentration-time curve. […] The absorption phase was linear and Tmax was between 1 and 4 h. […] In the PPK study, the best descriptive model was obtained when LBM was considered in the analysis. A correlation between CL/F and V/F was also observed for compound. A total of 81 patients (52 male, 29 female) were evaluable for PK (40 AL patients, 41 OHM patients), with a total of […] available for analysis.

[5] = 10 mg QD oral, n = 8, derived from EBE
[6] = 20 mg QD oral, n = 6, derived from EBE
[7] = 40 mg BID oral, n = 13, derived from EBE
[8] = 40 mg QD oral, n = 8, derived from EBE
[9] = 80 mg QD oral, n = 11, derived from EBE
[10] = 120 mg QD oral, n = 30, derived from EBE
[11] = 160 mg QD oral, n = 5, derived from EBE
[12] = PPK structural model, 1-compartment open model, 81 patients, all dose levels

CL [mean +/- SD] [4, 5]: 8.53 L/h
V [mean +/- SD] [4, 5]: 72.1 L
Cmin [mean +/- SD] ([4]; 10 mg QD oral, n = 8, observed values): 22.5 ng/mL
CL [mean +/- SD] [4, 6]: 7.06 L/h
V [mean +/- SD] [4, 6]: 57.6 L
Cmin [mean +/- SD] ([4]; 20 mg QD oral, n = 6, observed values): 50.5 ng/mL
CL [mean +/- SD] [4, 7]: 6.57 L/h
V [mean +/- SD] [4, 7]: 57.46 L
Cmin [mean +/- SD] ([4]; 40 mg BID oral, n = 13, observed values): 351.16 ng/mL
CL [mean +/- SD] [4, 8]: 7.66 L/h
V [mean +/- SD] [4, 8]: 58.65 L
Cmin [mean +/- SD] ([4]; 40 mg QD oral, n = 8, observed values): 47.7 ng/mL
CL [mean +/- SD] [4, 9]: 7.83 L/h
V [mean +/- SD] [4, 9]: 71.14 L
Cmin [mean +/- SD] ([4]; 80 mg QD oral, n = 11, observed values): 113.7 ng/mL
CL [mean +/- SD] [4, 10]: 7.81 L/h
V [mean +/- SD] [4, 10]: 63.32 L
Cmin [mean +/- SD] ([4]; 120 mg QD oral, n = 30, observed values): 325.4 ng/mL
CL [mean +/- SD] [4, 11]: 12.10 L/h
V [mean +/- SD] [4, 11]: 96.66 L
Cmin [mean +/- SD] ([4]; 160 mg QD oral, n = 5, observed values): 215.0 ng/mL
absorption constant (Ka) [4, 12]: 0.74 h⁻¹
apparent clearance (CL/F) [4, 12]: 8.45 L/h
apparent distribution volume (V/F) [4, 12]: 71.7 L
half-life ([4]; both sexes, human, plasma, oral, all patients, read-out: Mean elimination half-life (converted)): 5.8 h
AUC(0-t) ([4]; both sexes, human, plasma, po, 10 mg, 10 mg QD oral, n = 8, derived from EBE): 1190 ng·h/mL
AUC(0-t) ([4]; both sexes, human, plasma, po, 20 mg, 20 mg QD oral, n = 6, derived from EBE): 2930 ng·h/mL
AUC(0-t) ([4]; both sexes, human, plasma, po, 40 mg, 40 mg BID oral, n = 13, values doubled to mimic 80 mg (2 × 40 mg)): 13100 ng·h/mL
AUC(0-t) ([4]; both sexes, human, plasma, po, 40 mg, 40 mg QD oral, n = 8, derived from EBE): 5500 ng·h/mL
AUC(0-t) ([4]; both sexes, human, plasma, po, 80 mg, 80 mg QD oral, n = 11, derived from EBE): 12500 ng·h/mL
AUC(0-t) ([4]; both sexes, human, plasma, po, 120 mg, 120 mg QD oral, n = 30, derived from EBE): 17200 ng·h/mL
AUC(0-t) ([4]; both sexes, human, plasma, po, 160 mg, 160 mg QD oral, n = 5, derived from EBE): 13900 ng·h/mL
Cmax ([4]; both sexes, human, plasma, 40 mg BID oral, n = 13, derived from EBE): 550 ng/mL
Cmax ([4]; both sexes, human, plasma, 80 mg QD oral, n = 11, derived from EBE): 1150 ng/mL
Cmax ([4]; both sexes, human, plasma, 120 mg QD oral, n = 30, derived from EBE): 1470 ng/mL
Cmax ([4]; both sexes, human, plasma, 160 mg QD oral, n = 5, derived from EBE): 1290 ng/mL
Tmax ([4]; both sexes, human, plasma, oral, all dose levels): 1 to 4 h
half-life ([4]; human, plasma, po, 10 mg, 10 mg QD oral, n = 8, derived from EBE, read-out: T1/2 [mean +/- SD] (converted)): 5.84 h
half-life ([4]; human, plasma, po, 20 mg, 20 mg QD oral, n = 6, derived from EBE, read-out: T1/2 [mean +/- SD] (converted)): 5.63 h
half-life ([4]; human, plasma, po, 40 mg, 40 mg BID oral, n = 13, derived from EBE, read-out: T1/2 [mean +/- SD] (converted)): 6.22 h
half-life ([4]; human, plasma, po, 40 mg, 40 mg QD oral, n = 8, derived from EBE, read-out: T1/2 [mean +/- SD] (converted)): 5.33 h
half-life ([4]; human, plasma, po, 80 mg, 80 mg QD oral, n = 11, derived from EBE, read-out: T1/2 [mean +/- SD] (converted)): 5.51 h
half-life ([4]; human, plasma, po, 120 mg, 120 mg QD oral, n = 30, derived from EBE, read-out: T1/2 [mean +/- SD] (converted)): 5.91 h
half-life ([4]; human, plasma, po, 160 mg, 160 mg QD oral, n = 5, derived from EBE, read-out: T1/2 [mean +/- SD] (converted)): 5.48 h
Cmax ([4]; human, plasma, 10 mg QD oral, n = 8, derived from EBE): 131 ng/mL
Cmax ([4]; human, plasma, 20 mg QD oral, n = 6, derived from EBE): 275 ng/mL
Cmax ([4]; human, plasma, 40 mg QD oral, n = 8, derived from EBE): 627 ng/mL
Compound: Cc1sc2c(c1C)C(c1ccc(Cl)cc1)=N[C@@H](CC(=O)Nc1ccc(O)cc1)c1nnc(C)n1-2 [Compound of Formula (1), (S)-2-(4-(4-chlorophenyl)-2,3,9-trimethyl-6H-thieno[3,2-f][1,2,4]triazolo[4,3-a][1,4]diazepin-6-yl)-N-(4-hydroxyphenyl)acetamide]
objective responses [1]: not observed
inhibition of binding of acetylated histone H4 to BET proteins [2]: inhibit the binding
Dose Limiting Toxicity, observed toxicity ([3]; Acute Leukemia, 20 mg QD, 6 patients): 0 patients
Dose Limiting Toxicity, observed toxicity ([3]; Acute Leukemia, 40 mg BID, 6 patients): 0 patients
Dose Limiting Toxicity, observed toxicity ([3]; Acute Leukemia, 40 mg QD, 4 patients): 0 patients
Dose Limiting Toxicity, observed toxicity ([3]; Acute Leukemia, 80 mg QD, 4 patients): 0 patients
Dose Limiting Toxicity, observed toxicity ([3]; Acute Leukemia, 120 mg QD, 11 patients): 0 patients
Dose Limiting Toxicity, observed toxicity ([3]; Acute Leukemia, 160 mg QD, 5 patients (diarrhea and fatigue/anorexia)): 2 patients
Dose Limiting Toxicity, observed toxicity ([3]; Older Adult Hematologic Malignancies, 20 mg QD, 6 patients): 0 patients
Dose Limiting Toxicity, observed toxicity ([3]; Older Adult Hematologic Malignancies, 40 mg BID, 6 patients (thrombocytopenia)): 5 patients
Dose Limiting Toxicity, observed toxicity ([3]; Older Adult Hematologic Malignancies, 40 mg QD, 3 patients): 0 patients
Dose Limiting Toxicity, observed toxicity ([3]; Older Adult Hematologic Malignancies, 80 mg QD, 7 patients (thrombocytopenia)): 2 patients
Dose Limiting Toxicity, observed toxicity ([3]; Older Adult Hematologic Malignancies, 120 mg QD, 18 patients (thrombocytopenia, hypo Na, neutropenia, fatigue, diarrhea, mucositis)): 10 patients
